One test has as its target T1, Human Liver ALP (Homo sapiens, UniProt P05186).
T1 sequence (P05186 18-502 limits assumed): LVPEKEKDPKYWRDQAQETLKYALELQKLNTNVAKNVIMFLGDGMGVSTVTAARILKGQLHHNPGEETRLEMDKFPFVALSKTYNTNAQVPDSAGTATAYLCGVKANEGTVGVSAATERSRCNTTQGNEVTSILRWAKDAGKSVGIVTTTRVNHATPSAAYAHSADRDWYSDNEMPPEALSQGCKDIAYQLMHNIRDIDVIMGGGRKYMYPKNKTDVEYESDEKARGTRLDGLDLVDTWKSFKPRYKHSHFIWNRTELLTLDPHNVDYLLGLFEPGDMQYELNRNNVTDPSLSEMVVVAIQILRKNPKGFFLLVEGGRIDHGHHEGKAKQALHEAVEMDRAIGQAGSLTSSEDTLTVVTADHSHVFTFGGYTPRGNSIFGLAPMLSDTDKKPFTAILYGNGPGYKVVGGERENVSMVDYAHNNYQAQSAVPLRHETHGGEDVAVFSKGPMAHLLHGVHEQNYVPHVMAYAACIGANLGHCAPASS
Nature of the test: Ki of inhibitors for human liver ALP (Table 1). The settings on record: Enzyme: Human Liver. Type of test: biochemical. The source says:
Another approach to reduce the effects of the human ALPs is to use inhibitors of ALPs in the substrate solution.

For test [1], the system named is endogenous ALP (high molecular weight and/or elevated normal ALP) in patient serum samples. In words: Background signal from endogenous ALP of patient serum samples on Stratus Fluorometric Analyzer, using each substrate/wash composition. The note with it: patient serum Samples 1-3 (FIGS. 1-3); ALP conjugate, 4-MUP substrate; rate in mv/min. Further details: species or system human. As to the method:
Three carcinoembryonic antigen (CEA) positive patient serum samples (Samples 1, 2, and 3) were identified as having high molecular weight ALP and/or elevated levels of normal ALP. These samples were tested using the compositions of this invention. The patient samples were evaluated on an automated immunoassay analyzer (the Stratus^R Fluorometric Analyzer from Baxter Diagnostics Inc.) which utilizes an ALP conjugate and a 4-MUP substrate. This automated analyzer combines the wash step with the substrate addition step. See, U.S. Pat. No. 4,517,288. The commercially available substrate composition (XWS) has the dual function of washing the solid phase and initiating the ALP reaction. […]
(§1) The samples were evaluated on the analyzer using each composition as the substrate/wash. […]
Five patient samples, Samples 1, 2, and 3 (as described in Example 1), Sample 4 (which originated from a patient who tested positive for colon cancer) and Sample 5 (which originated from a patient who tested positive for breast cancer) were identified as having high molecular weight ALP and/or elevated levels of normal ALP. These samples were evaluated using the compositions of this invention. The patient samples were evaluated on the automated immunoassay analyzer described in Example 1. […]
as §1

Test [2] addresses T2, ALPs in Sarcoma 180/TG ascites cells (Mus musculus, UniProt P09242).
T2 construct: host or cells: Sarcoma 180/TG ascites cells
T2 sequence (P09242 18-502 limits assumed): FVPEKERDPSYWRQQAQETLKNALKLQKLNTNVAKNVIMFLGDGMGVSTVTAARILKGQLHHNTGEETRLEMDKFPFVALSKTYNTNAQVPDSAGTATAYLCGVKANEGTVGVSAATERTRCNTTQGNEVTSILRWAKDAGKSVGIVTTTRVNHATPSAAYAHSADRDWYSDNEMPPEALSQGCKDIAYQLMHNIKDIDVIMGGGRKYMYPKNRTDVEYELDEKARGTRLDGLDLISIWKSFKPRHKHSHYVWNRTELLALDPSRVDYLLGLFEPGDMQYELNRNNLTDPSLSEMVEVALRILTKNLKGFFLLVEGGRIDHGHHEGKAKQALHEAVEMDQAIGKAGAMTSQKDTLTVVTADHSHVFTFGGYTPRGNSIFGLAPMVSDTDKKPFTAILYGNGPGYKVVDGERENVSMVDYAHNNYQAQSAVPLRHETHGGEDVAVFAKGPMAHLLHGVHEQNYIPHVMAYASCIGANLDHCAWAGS
The settings on record: J. Med. Chem. 1977, 20: 563-566; cited from earlier work.

pKi: −log10 of the molar value.

As a reminder, the pKi is the Ki on a negative log10 scale, so that one unit is a factor of ten. At Human Liver ALP, `Brc1ccc([C@H]2CN3CCSC3=N2)cc1` [Bromolevamisole] gave a negative-log Ki (pKi) of 4.01.
Take `C1=CN2CC(c3ccc4ccccc4c3)N=C2S1` (stereo not shown) [Naphthyl, 5,6-Dihydro-6-(2-naphthyl)imidazo-[2,1-b]thiazole]: the pKi was 4.52 on Human Liver ALP and roughly 6.00 in test [2]. Also, the “background signal generated from endogenous ALP / false positive reading” value in test [1] is “substantially lowers the background signal”.
